Measurements from patent EP0414533A1, “Use of iodopropargyl esters of alpha-amino acid derivatives as antimicrobial agents” (ROHM AND HAAS COMPANY, priority 1989, dated 1991).
Where a name gives a salt, the structure may show the parent alone. Read-outs that look alike come from different tables or passages of the source.

Experiments:
ALT = test: In-vitro plant fungicide test; format: cell-based; parameters: inhibition of growth: concentration or dose not given beside the values; conditions: Table IVb, read-out: % Control at (ppm) indicated ALT
Botrytis cinerea (BOC) = test: In-vitro plant fungicide test; format: cell-based; conditions: Botrytis cinerea
CER = test: In-vitro plant fungicide test; format: cell-based; conditions: Table IVb, read-out: % Control at (ppm) indicated CER
COL = test: In-vitro plant fungicide test; format: cell-based; parameters: inhibition of growth: concentration or dose not given beside the values; conditions: Table IVb, read-out: % Control at (ppm) indicated COL
[1] = tested on: Cochliobolus sativus (HEL); test: In-vitro plant fungicide test; format: cell-based; conditions: Bipolaris sorokiniana
MON = test: In-vitro plant fungicide test; format: cell-based; conditions: Table IVb, read-out: % Control at (ppm) indicated MON
PSH = test: In-vitro plant fungicide test; format: cell-based; conditions: Table IVb, read-out: % Control at (ppm) indicated PSH
Pythium ultimum (PYU) = test: In-vitro plant fungicide test; format: cell-based; conditions: Globisporangium ultimum
Rhizoctonia solani (RHI) = test: In-vitro plant fungicide test; format: cell-based; conditions: Rhizoctonia solani
Septoria nodorum (SEP) = test: In-vitro plant fungicide test; format: cell-based; conditions: Parastagonospora nodorum
[2] = tested on: Xanthomonas campestris (XAN); test: In-vitro plant fungicide test; format: cell-based; parameters: inhibition of growth: concentration or dose not given beside the values; conditions: Xanthomonas campestris
THREE FUNGI = test: MIC test against three fungi in Mycophile Broth, pH 5.0, read after 8 days (Table VII); format: cell-based; conditions: 192 h
[3] = tested on: Pseudomonas fluorescens (PSFL); test: Minimum inhibitory concentration (MIC), broth two-fold serial dilution test; conditions: Pseudomonas fluorescens, read-out: MIC (G-) PSFL, M9G (minimal salts media with glucose); Table IIIc, iodopropargyl esters of peptides
Escherichia coli (ECOL) = test: as above; conditions: Escherichia coli, read-out: MIC (G-) ECOL, M9G (minimal salts media with glucose); Table IIIc, iodopropargyl esters of peptides
[4] = Table IVb, read-out: % Control at (ppm) indicated XAN

C[C@H](N)C(=O)N[C@@H](COCc1ccccc1)C(=O)OCC#CI [Compound 19, L-alanyl-O-benzyl-L-serine iodopropargyl ester trifluoroacetate]
inhibition of growth at 1.5 ppm (ALT; 1.5 ppm): 0% | inhibition of growth at 3 ppm (ALT; 3 ppm): 50% | inhibition of growth at 6 ppm (ALT; 6 ppm): 75% | inhibition of growth at 25 ppm (ALT; 25 ppm): 100% | inhibition of growth at 0.2 ppm (ALT; .2 ppm): 0% | inhibition of growth at 0.4 ppm (ALT; .4 ppm): 0% | inhibition of growth at 0.8 ppm (ALT; .8 ppm): 0% | inhibition of growth (ALT): 100% | inhibition of growth at 1.5 ppm (Botrytis cinerea (BOC); 1.5 ppm, Table IVb, read-out: % Control at (ppm) indicated BOC): 0% | inhibition of growth at 6 ppm (Botrytis cinerea (BOC); 6 ppm, Table IVb, read-out: % Control at (ppm) indicated BOC): 0% | inhibition of growth at 25 ppm (Botrytis cinerea (BOC); Table IVa, *=Phytotoxic, read-out: % Control at 25 ppm BOC): 0% | inhibition of growth at 25 ppm (Botrytis cinerea (BOC); Table IVb, read-out: % Control at (ppm) indicated BOC): 90% | inhibition of growth at 0.2 ppm (Botrytis cinerea (BOC); .2 ppm, Table IVb, read-out: % Control at (ppm) indicated BOC): 0% | inhibition of growth at 0.4 ppm (Botrytis cinerea (BOC); .4 ppm, Table IVb, read-out: % Control at (ppm) indicated BOC): 0% | inhibition of growth at 0.8 ppm (Botrytis cinerea (BOC); .8 ppm, Table IVb, read-out: % Control at (ppm) indicated BOC): 0% | inhibition of growth at 1.5 ppm (CER; 1.5 ppm): 0% | inhibition of growth at 6 ppm (CER; 6 ppm): 50% | inhibition of growth at 25 ppm (CER; 25 ppm): 100% | inhibition of growth at 0.2 ppm (CER; .2 ppm): 0% | inhibition of growth at 0.4 ppm (CER; .4 ppm): 0% | inhibition of growth at 0.8 ppm (CER; .8 ppm): 0% | inhibition of growth at 1.5 ppm (COL; 1.5 ppm): 0% | inhibition of growth at 3 ppm (COL; 3 ppm): 0% | inhibition of growth at 6 ppm (COL; 6 ppm): 0% | inhibition of growth at 0.2 ppm (COL; .2 ppm): 0% | inhibition of growth at 0.4 ppm (COL; .4 ppm): 0% | inhibition of growth at 0.8 ppm (COL; .8 ppm): 0% | inhibition of growth (COL): 0% | inhibition of growth at 1.5 ppm ([1]; 1.5 ppm, Table IVb, read-out: % Control at (ppm) indicated HEL): 0% | inhibition of growth at 6 ppm ([1]; 6 ppm, Table IVb, read-out: % Control at (ppm) indicated HEL): 0% | inhibition of growth at 25 ppm ([1]; Table IVa, *=Phytotoxic, read-out: % Control at 25 ppm HEL): 100% | inhibition of growth at 25 ppm ([1]; Table IVb, read-out: % Control at (ppm) indicated HEL): 100% | inhibition of growth at 0.2 ppm ([1]; .2 ppm, Table IVb, read-out: % Control at (ppm) indicated HEL): 0% | inhibition of growth at 0.4 ppm ([1]; .4 ppm, Table IVb, read-out: % Control at (ppm) indicated HEL): 0% | inhibition of growth at 0.8 ppm ([1]; .8 ppm, Table IVb, read-out: % Control at (ppm) indicated HEL): 0% | inhibition of growth at 1.5 ppm (MON; 1.5 ppm): 50% | inhibition of growth at 6 ppm (MON; 6 ppm): 100% | inhibition of growth at 25 ppm (MON; 25 ppm): 100% | inhibition of growth at 0.2 ppm (MON; .2 ppm): 0% | inhibition of growth at 0.4 ppm (MON; .4 ppm): 0% | inhibition of growth at 0.8 ppm (MON; .8 ppm): 0% | inhibition of growth at 1.5 ppm (PSH; 1.5 ppm): 50% | inhibition of growth at 6 ppm (PSH; 6 ppm): 100% | inhibition of growth at 0.2 ppm (PSH; .2 ppm): 0% | inhibition of growth at 0.4 ppm (PSH; .4 ppm): 0% | inhibition of growth at 0.8 ppm (PSH; .8 ppm): 0% | inhibition of growth at 1.5 ppm (Pythium ultimum (PYU); 1.5 ppm, Table IVb, read-out: % Control at (ppm) indicated PYU): 0% | inhibition of growth at 6 ppm (Pythium ultimum (PYU); 6 ppm, Table IVb, read-out: % Control at (ppm) indicated PYU): 0% | inhibition of growth at 25 ppm (Pythium ultimum (PYU); Table IVa, read-out: % Control at 25 ppm PYU): 100% | inhibition of growth at 25 ppm (Pythium ultimum (PYU); Table IVb, read-out: % Control at (ppm) indicated PYU): 100% | inhibition of growth at 0.2 ppm (Pythium ultimum (PYU); .2 ppm, Table IVb, read-out: % Control at (ppm) indicated PYU): 0% | inhibition of growth at 0.4 ppm (Pythium ultimum (PYU); .4 ppm, Table IVb, read-out: % Control at (ppm) indicated PYU): 0% | inhibition of growth at 0.8 ppm (Pythium ultimum (PYU); .8 ppm, Table IVb, read-out: % Control at (ppm) indicated PYU): 0% | inhibition of growth at 1.5 ppm (Rhizoctonia solani (RHI); 1.5 ppm, Table IVb, read-out: % Control at (ppm) indicated RHI): 0% | inhibition of growth at 6 ppm (Rhizoctonia solani (RHI); 6 ppm, Table IVb, read-out: % Control at (ppm) indicated RHI): 0% | inhibition of growth at 25 ppm (Rhizoctonia solani (RHI); Table IVa, read-out: % Control at 25 ppm RHI): 100% | inhibition of growth at 25 ppm (Rhizoctonia solani (RHI); Table IVb, read-out: % Control at (ppm) indicated RHI): 100% | inhibition of growth at 0.2 ppm (Rhizoctonia solani (RHI); .2 ppm, Table IVb, read-out: % Control at (ppm) indicated RHI): 0% | inhibition of growth at 0.4 ppm (Rhizoctonia solani (RHI); .4 ppm, Table IVb, read-out: % Control at (ppm) indicated RHI): 0% | inhibition of growth at 0.8 ppm (Rhizoctonia solani (RHI); .8 ppm, Table IVb, read-out: % Control at (ppm) indicated RHI): 0% | inhibition of growth at 1.5 ppm (Septoria nodorum (SEP); 1.5 ppm, Table IVb, read-out: % Control at (ppm) indicated SEP): 50% | inhibition of growth at 6 ppm (Septoria nodorum (SEP); 6 ppm, Table IVb, read-out: % Control at (ppm) indicated SEP): 100% | inhibition of growth at 25 ppm (Septoria nodorum (SEP); Table IVa, read-out: % Control at 25 ppm SEP): 100% | inhibition of growth at 25 ppm (Septoria nodorum (SEP); Table IVb, read-out: % Control at (ppm) indicated SEP): 100% | inhibition of growth at 0.2 ppm (Septoria nodorum (SEP); .2 ppm, Table IVb, read-out: % Control at (ppm) indicated SEP): 0% | inhibition of growth at 0.4 ppm (Septoria nodorum (SEP); .4 ppm, Table IVb, read-out: % Control at (ppm) indicated SEP): 0% | inhibition of growth at 0.8 ppm (Septoria nodorum (SEP); .8 ppm, Table IVb, read-out: % Control at (ppm) indicated SEP): 0% | inhibition of growth at 1.5 ppm ([2]; 1.5 ppm, Table IVb, read-out: % Control at (ppm) indicated XAN): 0% | inhibition of growth at 3 ppm ([2]; 3 ppm, Table IVb, read-out: % Control at (ppm) indicated XAN): 0% | inhibition of growth at 6 ppm ([2]; 6 ppm, Table IVb, read-out: % Control at (ppm) indicated XAN): 0% | inhibition of growth at 25 ppm ([2]; Table IVa, read-out: % Control at 25 ppm XAN): 0% | inhibition of growth at 25 ppm [2, 4]: 0% | inhibition of growth at 0.2 ppm ([2]; .2 ppm, Table IVb, read-out: % Control at (ppm) indicated XAN): 0% | inhibition of growth at 0.4 ppm ([2]; .4 ppm, Table IVb, read-out: % Control at (ppm) indicated XAN): 0% | inhibition of growth at 0.8 ppm ([2]; .8 ppm, Table IVb, read-out: % Control at (ppm) indicated XAN): 0% | inhibition of growth [2, 4]: 0% | MIC (THREE FUNGI; Aspergillus niger, pH 5, read-out: MIC ANIG, Aspergillus niger, serial dilutions from 50 ppm, read after 8 days of incubation): 50 µg/mL | MIC (THREE FUNGI; Aureobasidium pullulans, pH 5, read-out: MIC APUL, Aureobasidium pullulans, serial dilutions from 50 ppm, read after 8 days of incubation): 50 µg/mL | MIC (THREE FUNGI; Gloeophyllum trabeum, pH 5, read-out: MIC GTRA, Gloeophyllum trabeum, serial dilutions from 50 ppm, read after 8 days of incubation): 50 µg/mL | MIC [3]: 50 µg/mL | MIC (Escherichia coli (ECOL)): 100 µg/mL
